Experimental data reported in patent US20130165368A1, “ANTIMICROBIAL COMPOUNDS” (priority 2010, published 2013).
Values after ≈ are worked out from the molar mass of the structure shown. Where two headings read alike, the source gives them in different places.

Columns and labels:
Type in all cases: cell-based
[1] = test system: Enterococcus faecium (VRE) NCTC 12952; experiment: MIC agar dilution, VRE strain 30
Procedure: (§1) Molar equivalent concentrations were used to allow comparison between compounds of differing molecular mass. Due to weighing difficulties, any compound in solid form was melted in a water bath prior to dilution. To make ten-times strength concentrations, which takes into account agar dilution, 0.0352 mmol of each compound was weighed into plastic universal bottles and 4 mL of sterile distilled water (SDW) was added. To produce a homogenous emulsion the universals were vortexed; once achieved the emulsions were serial diluted by adding 2 mL to 2 mL of SDW.
(§2) For every 100 mL of Isosensitest agar (IST) (CM0471; Oxoid, Basingstoke, England), 3.1 g of the IST powder was added to 100 mL SDW (as per manufacturer's instructions) and sterilised for 15 minutes at 121° C. Once sterilised, the molten agar was cooled to 50° C. in a water-bath. Subsequently 4.8 g of CCEY powder (BC2160; Bioconnections, Wetherby, England), also known as Brazier's medium, was added to 100 mL SDW for every 100 mL of agar needed. This was then sterilised for 15 minutes at 121° C. Once sterilised the molten agar was cooled to 50° C. in a water-bath and 4 mL of egg-yolk emulsion (S2073; TCS Biosciences Ltd, Buckingham, United Kingdom) and 1 mL of lysed defibrinated horse blood (HB035; TCS Biosciences Ltd, Buckingham, United Kingdom) were also added for every 100 mL needed. Horse blood lysis is achieved by dilution to half concentration with SDW; when fully lysed the mixture will turn dark red in colour.
(§3) 18 mL agar was added to each universal and then poured into sterile Petri dishes. This step creates a 1/10 dilution resulting in agar plates of the required strength. Control plates for each set of strains were created by adding 18 mL of agar to 2 mL of SDW.
(§4) Suspensions of each bacterial species were prepared with a density equal to that of a 0.5 McFarland standard using a densitometer. All suspensions were made using sterile distilled water and fresh 18-20 hour cultures. As a 0.5 McFarland standard contains 1.5×10^8 CFU/mL and the multipoint inoculators applies 1 μL spots of liquid, each bacterial suspension was diluted 1/15 (20 μL suspension to 280 μL sterile distilled water).
(§5) Bacterial suspensions were prepared from fresh 18-24 hour cultures as previously described. 1 μL of each strain was inoculated onto all 100 agar plates containing a different chemical concentration and the 2 control plates. This was done using a multipoint inoculator which inoculates 20 strains per plate. All plates were incubated for 22 hours at 37° C. in aerobic conditions.
(§6) Each plate was examined for bacterial growth after 22 and 48 hours, with each being incubated in between examinations. A positive result was recorded as growth of ≧10 colonies. A negative result was recorded as growth of <10 colonies as this is equivalent to 99.9% inhibition. The lowest concentration of chemical that inhibited growth was recorded as the MIC. The results are recorded in Table IV below, where the numbers are quoted in mmol/L.
(§7) Given the positive performance of the ethoxylates of lauryl alcohol in reducing the MIC for a number of the micro-organisms tested, further MIC testing of Laureth-1 [C12E1] through to Laureth-8 [C12E8] was conducted on each of the following: • 10 strains of vancomycin-resistant enterococci (VRE)—listed in Table V below; and • 20 strains of methicillin-resistant Staphylococcus aureus (MRSA)—listed in Table VI.
(§8) The alkanol, alkanol derivatives, agar plates, and inocula were all prepared in the same way as described above.
(§9) The plates were examined in the same manner as described above and the results are recorded in Table VII below, where the numbers are quoted in mmol/L.

[2] = test system: Enterococcus casseliflavus (VRE) Clin waste; experiment: MIC agar dilution, VRE strain 23
Procedure: as §1, §2, §3, §4, §5, §6, §7, §8, §9

[3] = test system: Enterococcus faecium (VRE) 255693 N. Tyneside; experiment: MIC agar dilution, VRE strain 22
Procedure: as §1, §2, §3, §4, §5, §6, §7, §8, §9

Candida albicans = experiment: MIC agar dilution, micro-organism 19 (90028); conditions: Candida albicans 90028, read-out: MIC
Procedure, shortened: (§10)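 Agar dilution in Isosensitest/CCEY agar with egg yolk and lysed horse blood; compounds as aqueous emulsions (myristyl and lauryl alcohol with 1-methyl-2-pyrrolidone and Tween 20). 1 µL spots of 1/15-diluted 0.5 McFarland suspensions, 37 °C aerobic, read at 22 and 48 h; MIC (mmol/L) is lowest concentration giving <10 colonies.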

[4] = test system: Enterococcus faecalis (VRE) MB 726; experiment: MIC agar dilution, VRE strain 28
Procedure: as §1, §2, §3, §4, §5, §6, §7, §8, §9

Escherichia coli = experiment: MIC agar dilution, micro-organism 1 (10418); conditions: Escherichia coli 10418, read-out: MIC
Procedure, shortened: as §10

MRSA FIN 54511 (E6) = experiment: MIC agar dilution, MRSA strain 32; conditions: Staphylococcus aureus
Procedure: as §1, §2, §3, §4, §5, §6, §7, §8, §9

MRSA FIN 54518 (E7) = experiment: MIC agar dilution, MRSA strain 31; conditions: Staphylococcus aureus
Procedure: as §1, §2, §3, §4, §5, §6, §7, §8, §9

Listeria monocytogenes = experiment: MIC agar dilution, micro-organism 15 (11994); conditions: Listeria monocytogenes 11994, read-out: MIC
Procedure, shortened: as §10

[5] = test system: Enterococcus faecium (VRE) 12185 Clin waste; experiment: MIC agar dilution, VRE strain 24
Procedure: as §1, §2, §3, §4, §5, §6, §7, §8, §9

Enterococcus faecium = experiment: MIC agar dilution, micro-organism 16 (7171); conditions: Enterococcus faecium 7171, read-out: MIC
Procedure, shortened: as §10

[6] = test system: Enterococcus faecalis (VRE) PHLS URINE 2000; experiment: MIC agar dilution, VRE strain 21
Procedure: as §1, §2, §3, §4, §5, §6, §7, §8, §9

MRSA EMRSA 15 19972/98 = experiment: MIC agar dilution, MRSA strain 39; conditions: Staphylococcus aureus
Procedure: as §1, §2, §3, §4, §5, §6, §7, §8, §9

Row | SMILES | MIC ([1]; 22 hrs) | MIC ([1]; 48 hrs) | MIC ([2]; 22 hrs) | MIC ([2]; 48 hrs) | MIC ([3]; 22 hrs) | MIC ([3]; 48 hrs) | MIC (Candida albicans; 22 hrs) | MIC (Candida albicans; 48 hrs) | MIC ([4]; 22 hrs) | MIC ([4]; 48 hrs) | MIC (Escherichia coli; 22 hrs) | MIC (Escherichia coli; 48 hrs) | MIC (MRSA FIN 54511 (E6); 22 hrs) | MIC (MRSA FIN 54511 (E6); 48 hrs) | MIC (MRSA FIN 54518 (E7); 22 hrs) | MIC (MRSA FIN 54518 (E7); 48 hrs) | MIC (Listeria monocytogenes; 22 hrs) | MIC (Listeria monocytogenes; 48 hrs) | MIC ([5]; 22 hrs) | MIC ([5]; 48 hrs) | other results
1 | CCCCCCCCCCCCOCCOCCOCCO [L3, Triethylene Glycol Monododecyl Ether] | 220 µM (≈ 70.1 µg/mL) | 220 µM (≈ 70.1 µg/mL) | 220 µM (≈ 70.1 µg/mL) | 220 µM (≈ 70.1 µg/mL) | 880 µM (≈ 280 µg/mL) | > 880 µM | 220 µM (≈ 70.1 µg/mL) | 220 µM (≈ 70.1 µg/mL) | 220 µM (≈ 70.1 µg/mL) | 220 µM (≈ 70.1 µg/mL) | > 880 µM | > 880 µM | 220 µM (≈ 70.1 µg/mL) | 220 µM (≈ 70.1 µg/mL) | 220 µM (≈ 70.1 µg/mL) | 440 µM (≈ 140 µg/mL) | 110 µM (≈ 35 µg/mL) | 220 µM (≈ 70.1 µg/mL) | 880 µM (≈ 280 µg/mL) | > 880 µM | MIC (Enterococcus faecium; 22 hrs): 110 µM (≈ 35 µg/mL); MIC (Enterococcus faecium; 48 hrs): 110 µM (≈ 35 µg/mL); MIC ([6]; 22 hrs): 220 µM (≈ 70.1 µg/mL); MIC ([6]; 48 hrs): 220 µM (≈ 70.1 µg/mL); MIC (MRSA EMRSA 15 19972/98; 22 hrs): 110 µM (≈ 35 µg/mL); MIC (MRSA EMRSA 15 19972/98; 48 hrs): 110 µM (≈ 35 µg/mL)
2 | CCCCCCCCCCCCOCCOCCOCCOCCO [L4, Tetraethylene Glycol Monododecyl Ether] | 440 µM (≈ 160 µg/mL) | 440 µM (≈ 160 µg/mL) | 110 µM (≈ 39.9 µg/mL) | 110 µM (≈ 39.9 µg/mL) | 440 µM (≈ 160 µg/mL) | 880 µM (≈ 319 µg/mL) | 440 µM (≈ 160 µg/mL) | 220 µM (≈ 79.8 µg/mL) | 220 µM (≈ 79.8 µg/mL) | 220 µM (≈ 79.8 µg/mL) | > 880 µM | > 880 µM | 110 µM (≈ 39.9 µg/mL) | 110 µM (≈ 39.9 µg/mL) | 220 µM (≈ 79.8 µg/mL) | 440 µM (≈ 160 µg/mL) | 110 µM (≈ 39.9 µg/mL) | 220 µM (≈ 79.8 µg/mL) | 220 µM (≈ 79.8 µg/mL) | 440 µM (≈ 160 µg/mL) | MIC (Enterococcus faecium; 22 hrs): 220 µM (≈ 79.8 µg/mL); MIC (Enterococcus faecium; 48 hrs): 220 µM (≈ 79.8 µg/mL); MIC ([6]; 22 hrs): 110 µM (≈ 39.9 µg/mL); MIC ([6]; 48 hrs): 110 µM (≈ 39.9 µg/mL); MIC (MRSA EMRSA 15 19972/98; 22 hrs): 55 µM (≈ 19.9 µg/mL); MIC (MRSA EMRSA 15 19972/98; 48 hrs): 55 µM (≈ 19.9 µg/mL)
3 | CCCCCCCCCCCCOCCOCCOCCOCCOCCO [L5, Pentaethylene Glycol Monododecyl Ether] | 220 µM (≈ 89.5 µg/mL) | 220 µM (≈ 89.5 µg/mL) | 110 µM (≈ 44.7 µg/mL) | 110 µM (≈ 44.7 µg/mL) | 220 µM (≈ 89.5 µg/mL) | 220 µM (≈ 89.5 µg/mL) | 440 µM (≈ 179 µg/mL) | 440 µM (≈ 179 µg/mL) | 220 µM (≈ 89.5 µg/mL) | 220 µM (≈ 89.5 µg/mL) | > 880 µM | > 880 µM | 110 µM (≈ 44.7 µg/mL) | 220 µM (≈ 89.5 µg/mL) | 440 µM (≈ 179 µg/mL) | 440 µM (≈ 179 µg/mL) | 110 µM (≈ 44.7 µg/mL) | 220 µM (≈ 89.5 µg/mL) | 220 µM (≈ 89.5 µg/mL) | 220 µM (≈ 89.5 µg/mL) | MIC (Enterococcus faecium; 22 hrs): 220 µM (≈ 89.5 µg/mL); MIC (Enterococcus faecium; 48 hrs): 220 µM (≈ 89.5 µg/mL); MIC ([6]; 22 hrs): 110 µM (≈ 44.7 µg/mL); MIC ([6]; 48 hrs): 110 µM (≈ 44.7 µg/mL); MIC (MRSA EMRSA 15 19972/98; 22 hrs): 110 µM (≈ 44.7 µg/mL); MIC (MRSA EMRSA 15 19972/98; 48 hrs): 110 µM (≈ 44.7 µg/mL)
4 | CCCCCCCCCCCCOCCOCCOCCOCCOCCOCCO [L6, Hexaethylene Glycol Monododecyl Ether] | > 880 µM | > 880 µM | 220 µM (≈ 99.1 µg/mL) | 220 µM (≈ 99.1 µg/mL) | 440 µM (≈ 198 µg/mL) | > 880 µM | > 880 µM | 880 µM (≈ 397 µg/mL) | > 880 µM | > 880 µM | > 880 µM | > 880 µM | 110 µM (≈ 49.6 µg/mL) | 110 µM (≈ 49.6 µg/mL) | > 440 µM | > 440 µM | 110 µM (≈ 49.6 µg/mL) | 110 µM (≈ 49.6 µg/mL) | 880 µM (≈ 397 µg/mL) | 880 µM (≈ 397 µg/mL) | MIC (Enterococcus faecium; 22 hrs): 440 µM (≈ 198 µg/mL); MIC (Enterococcus faecium; 48 hrs): 220 µM (≈ 99.1 µg/mL); MIC ([6]; 22 hrs): 220 µM (≈ 99.1 µg/mL); MIC ([6]; 48 hrs): 220 µM (≈ 99.1 µg/mL); MIC (MRSA EMRSA 15 19972/98; 22 hrs): 110 µM (≈ 49.6 µg/mL); MIC (MRSA EMRSA 15 19972/98; 48 hrs): 110 µM (≈ 49.6 µg/mL)
5 | CCCCCCCCCCCCOCCOCCOCCOCCOCCOCCOCCO [L7, Heptaethylene Glycol Monododecyl Ether] | > 880 µM | > 880 µM | 220 µM (≈ 109 µg/mL) | 220 µM (≈ 109 µg/mL) | > 880 µM | > 880 µM | > 880 µM | > 880 µM | > 880 µM | > 880 µM | > 880 µM | > 880 µM | 110 µM (≈ 54.4 µg/mL) | 440 µM (≈ 218 µg/mL) | > 440 µM | > 440 µM | 220 µM (≈ 109 µg/mL) | 220 µM (≈ 109 µg/mL) | > 880 µM | > 880 µM | MIC (Enterococcus faecium; 22 hrs): > 880 µM; MIC (Enterococcus faecium; 48 hrs): > 880 µM; MIC ([6]; 22 hrs): 440 µM (≈ 218 µg/mL); MIC ([6]; 48 hrs): 880 µM (≈ 435 µg/mL); MIC (MRSA EMRSA 15 19972/98; 22 hrs): > 440 µM; MIC (MRSA EMRSA 15 19972/98; 48 hrs): > 440 µM
